Reference: US4468511A, “C-20- And C-23-Modified macrolide derivatives” (Eli Lilly and Company, priority 1983, dated 1984)
In brackets after ≈: the same amount, converted by molar mass. Where two headings read alike, the source gives them in different places.

Experiments:
Escherichia coli TEM = assay: MIC, standard agar-dilution assay; format: cell-based; conditions: agar-dilution; Escherichia coli TEM; read-out: MIC
Method in brief: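 Minimum inhibitory concentrations against Escherichia coli were measured with a standard agar-dilution method. The result for each derivative is the lowest concentration that inhibits bacterial growth, given in ug/mL.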

[1] = test system: Streptococcus pyogenes C203; assay: MIC, standard agar-dilution assay; format: cell-based
Experimental: (§1) Certain of the derivatives are active against some gram-negative bacteria, such as Pasteurella species. The MIC's in Table II were determined by standard agar-dilution assays. The MIC's in Table III were obtained using a conventional broth-dilution microtiter test.

[2] = test system: Streptococcus Group D X66; assay: MIC, standard agar-dilution assay; format: cell-based
Experimental: as §1

[3] = test system: Staphylococcus aureus V41; assay: MIC, standard agar-dilution assay; format: cell-based
Experimental: as §1

Escherichia coli EC14 = assay: MIC, standard agar-dilution assay; format: cell-based; conditions: agar-dilution; Escherichia coli EC14; read-out: MIC
Experimental: as §1

[4] = test system: Klebsiella pneumoniae KAE; assay: MIC, standard agar-dilution assay; format: cell-based; conditions: agar-dilution; Klebsiella pneumoniae KAE; read-out: MIC
Method in brief: (§2)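 Agar plates containing graded compound levels gave the Klebsiella value. Graded broth dilutions in microtiter plates gave the Pasteurella and Mycoplasma values.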

[5] = test system: Staphylococcus aureus X1.1; assay: MIC, standard agar-dilution assay; format: cell-based; conditions: agar-dilution; Staphylococcus aureus X1.1; read-out: MIC
Method in brief: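 Minimum inhibitory concentration against Staphylococcus aureus strain X1.1 was measured with a standard agar-dilution method. The result is reported as the MIC in ug/mL, i.e. the lowest compound concentration in agar that prevents visible growth of this organism.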

[6] = test system: Streptococcus pneumoniae Park I; assay: MIC, standard agar-dilution assay; format: cell-based; conditions: Streptococcus pneumoniae
Experimental: as §1

[7] = test system: Streptococcus pyogenes 9960; assay: MIC, standard agar-dilution assay; format: cell-based
Experimental: as §1

[8] = test system: Klebsiella pneumoniae X26; assay: MIC, standard agar-dilution assay; format: cell-based; conditions: Klebsiella pneumoniae, X26
Method in brief: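 Broth microdilution MICs cover P. hemolytica, P. multocida and M. gallisepticum. The agar-dilution MIC covers K. pneumoniae only.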

Streptococcus sp. 80 = assay: MIC, conventional broth-dilution microtiter test; format: cell-based; conditions: broth-dilution microtiter; Streptococcus sp. 80; read-out: MIC
Experimental: as §1

[9] = test system: Pasteurella multocida 60A; assay: MIC, conventional broth-dilution microtiter test; format: cell-based
Method in brief: as §2

Mycoplasma synoviae = assay: MIC, conventional broth-dilution microtiter test; format: cell-based; conditions: Mycoplasmopsis synoviae
Method in brief: (§3)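 MICs for the two Pasteurella strains and the Mycoplasma strain were read from a broth-dilution microtiter test. The Klebsiella strain was tested on agar instead.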

[10] = test system: Pasteurella multocida 68C; assay: MIC, conventional broth-dilution microtiter test; format: cell-based
Method in brief: as §2

Mycoplasma gallisepticum = assay: MIC, conventional broth-dilution microtiter test; format: cell-based; conditions: Mycoplasmoides gallisepticum; broth-dilution microtiter; Mycoplasma gallisepticum; read-out: MIC
Method in brief: as §2

[11] = test system: Mycoplasma gallisepticum 41313; assay: MIC, conventional broth-dilution microtiter test; format: cell-based; conditions: Mycoplasmoides gallisepticum; broth-dilution microtiter; Mycoplasma gallisepticum 41313, Resistant strain; read-out: MIC
Method in brief: as §2

[12] = test system: Pasteurella hemolytica 41D; assay: MIC, conventional broth-dilution microtiter test; format: cell-based; conditions: broth-dilution microtiter; Pasteurella hemolytica 41D; read-out: MIC
Method in brief: as §2

[13] = test system: Pasteurella hemolytica 23C; assay: MIC, conventional broth-dilution microtiter test; format: cell-based; conditions: broth-dilution microtiter; Pasteurella hemolytica 23C; read-out: MIC
Method in brief: as §2

[14] = test system: Pasteurella multocida 17E; assay: MIC, conventional broth-dilution microtiter test; format: cell-based; conditions: broth-dilution microtiter; Pasteurella multocida 17E, Bovine isolate; read-out: MIC
Method in brief: as §2

Staphylococcus aureus = assay: MIC, conventional broth-dilution microtiter test; format: cell-based; conditions: broth-dilution microtiter, read-out: MIC
Experimental: as §1

[15] = test system: Pasteurella multocida 22A; assay: MIC, conventional broth-dilution microtiter test; format: cell-based; conditions: broth-dilution microtiter; Pasteurella multocida 22A; read-out: MIC
Method in brief: as §2

[16] = test system: Pasteurella hemolytica 22C; assay: MIC, conventional broth-dilution microtiter test; format: cell-based; conditions: broth-dilution microtiter; Pasteurella hemolytica 22C; read-out: MIC
Method in brief: as §2

[17] = test system: Pasteurella multocida 40G; assay: MIC, conventional broth-dilution microtiter test; format: cell-based
Method in brief: as §2

[18] = test system: Mycoplasma gallisepticum 34159; assay: MIC, conventional broth-dilution microtiter test; format: cell-based; conditions: Mycoplasmoides gallisepticum; broth-dilution microtiter; Mycoplasma gallisepticum 34159, Resistant strain; read-out: MIC
Method in brief: as §2

Mycoplasma hyorhinis = assay: MIC, conventional broth-dilution microtiter test; format: cell-based; conditions: broth-dilution microtiter; Mycoplasma hyorhinis; read-out: MIC
Method in brief: as §3

[19] = test system: Staphylococcus epidermidis EPI1; assay: microbe, parasite or virus in culture; format: cell-based; conditions: agar-dilution; Staphylococcus epidermidis EPI1; read-out: MIC
Experimental: (§4) The MIC's in Table II were determined by standard agar-dilution assays. The MIC's in Table III were obtained using a conventional broth-dilution microtiter test.

[20] = test system: Staphylococcus aureus S13E; assay: microbe, parasite or virus in culture; format: cell-based
Experimental: as §4

[21] = test system: Streptococcus pyogenes C203; assay: Protection of mice experimentally infected with S. pyogenes C203; format: in vivo;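 also: two doses given 1 and 4 hours after infection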
Experimental: Some of the derivatives of this invention have shown in vivo antimicrobial activity against experimentally-induced infections in laboratory animals. When two doses of test compound were administered to mice experimentally infected with S. pyogenes C203, the activity observed was measured as an ED50 value [effective dose in mg/kg to protect 50% of the test animals: see Warren Wick, et al., J. Bacteriol. 81, 233-235 (1961)].

[22] = test system: Haemophilus influenzae C.L.; assay: MIC, standard agar-dilution assay; format: cell-based; conditions: Haemophilus influenzae
Experimental: as §4

[23] = test system: Staphylococcus epidermidis EPI2; assay: MIC, standard agar-dilution assay; format: cell-based
Experimental: as §4

[24] = test system: Staphylococcus aureus X400; assay: MIC, standard agar-dilution assay; format: cell-based; conditions: agar-dilution; Staphylococcus aureus X400, Methicillin-resistant strain; read-out: MIC
Experimental: as §4

[25] = test system: Haemophilus influenzae 76; assay: MIC, standard agar-dilution assay; format: cell-based; conditions: Haemophilus influenzae, 76
Experimental: as §4

SMILES	MIC (Escherichia coli TEM) [µg/mL]	MIC (Escherichia coli EC14) [µg/mL]	MIC [4] [µg/mL]	MIC [5] [µg/mL]	MIC [6] [µg/mL]	MIC [8] [µg/mL]	MIC (Streptococcus sp. 80) [µg/mL]	MIC (Mycoplasma gallisepticum) [µg/mL]	MIC [12] [µg/mL]	MIC [13] [µg/mL]	MIC [14] [µg/mL]	MIC (Staphylococcus aureus) [µg/mL]	MIC [15] [µg/mL]	MIC [16] [µg/mL]	MIC [18] [µg/mL]	MIC (Mycoplasma hyorhinis) [µg/mL]	MIC [19] [µg/mL]	MIC [20] [µg/mL]	MIC [22] [µg/mL]	MIC [24] [µg/mL]	also measured
CCC1OC(=O)CC(O)C(C)C(OC2OC(C)C(OC3CC(C)(O)C(O)C(C)O3)C(N(C)C)C2O)C(CCNCc2ccccc2)CC(C)C(=O)C=CC(C)=CC1C (centres unmarked) [Compound 25, 20-N-Benzylamino-20-deoxy-20-dihydro-DMOT]	> 128	> 128	> 128	4 (≈ 4.9 µM)	1 (≈ 1.22 µM)	64 (≈ 78.3 µM)	6.25 (≈ 7.65 µM)	1.56 (≈ 1.91 µM)	> 50	> 50	> 50	12.5 (≈ 15.3 µM)	> 50	> 50	> 50	> 50	4 (≈ 4.9 µM)	8 (≈ 9.79 µM)	64 (≈ 78.3 µM)	4 (≈ 4.9 µM)	MIC ([1]; Streptococcus pyogenes, C203): 2 µg/mL (≈ 2.45 µM); MIC [2]: 8 µg/mL (≈ 9.79 µM); MIC ([3]; agar-dilution, Staphylococcus aureus V41, Penicillin-resistant strain, read-out: MIC): 4 µg/mL (≈ 4.9 µM); MIC [7]; 9960: 8 µg/mL (≈ 9.79 µM); MIC ([9]; Pasteurella multocida, 60A): 50 µg/mL (≈ 61.2 µM); MIC (Mycoplasma synoviae): 50 µg/mL (≈ 61.2 µM); MIC ([10]; Pasteurella multocida, 68C): 50 µg/mL (≈ 61.2 µM); MIC [11]: > 50 µg/mL; MIC ([17]; Pasteurella multocida, 40G): 50 µg/mL (≈ 61.2 µM); ED50 ([21]; C203, po, read-out: ED50 Oral): > 100 mg/kg; ED50 ([21]; C203, sc, read-out: ED50 Subcutaneous): > 25 mg/kg; MIC ([23]; agar-dilution, Staphylococcus epidermidis EPI2, read-out: MIC): 4 µg/mL (≈ 4.9 µM)
CCC1OC(=O)CC(O)C(C)C(OC2OC(C)C(O)C(N(C)C)C2O)C(CCNC)CC(C)C(=O)C=CC(C)=CC1CO (centres unmarked) [Compound 3, 20-N-Methylamino-20-deoxy-20-dihydro-OMT]	128 (≈ 209 µM)	> 128	> 128	32 (≈ 52.2 µM)	16 (≈ 26.1 µM)	64 (≈ 104 µM)	50 (≈ 81.6 µM)	50 (≈ 81.6 µM)	50 (≈ 81.6 µM)	50 (≈ 81.6 µM)	50 (≈ 81.6 µM)	50 (≈ 81.6 µM)	50 (≈ 81.6 µM)	50 (≈ 81.6 µM)	> 50	> 50	32 (≈ 52.2 µM)	64 (≈ 104 µM)	128 (≈ 209 µM)	128 (≈ 209 µM)	MIC ([1]; agar-dilution, Streptococcus pyogenes C203, read-out: MIC): 128 µg/mL (≈ 209 µM); MIC ([2]; agar-dilution, Streptococcus Group D X66, read-out: MIC): > 128 µg/mL; MIC ([3]; Staphylococcus aureus, V41): 64 µg/mL (≈ 104 µM); MIC ([7]; agar-dilution, Streptococcus 9960, read-out: MIC): > 128 µg/mL; MIC ([9]; broth-dilution microtiter, Pasteurella multocida 60A, Avian isolate, read-out: MIC): 50 µg/mL (≈ 81.6 µM); MIC (Mycoplasma synoviae; broth-dilution microtiter, Mycoplasma synoviae, read-out: MIC): 25 µg/mL (≈ 40.8 µM); MIC ([10]; broth-dilution microtiter, Pasteurella multocida 68C, read-out: MIC): 25 µg/mL (≈ 40.8 µM); MIC ([17]; broth-dilution microtiter, Pasteurella multocida 40G, read-out: MIC): 50 µg/mL (≈ 81.6 µM); MIC [25]: 128 µg/mL (≈ 209 µM); MIC ([23]; Staphylococcus epidermidis, EPI2): 64 µg/mL (≈ 104 µM)
